This note sets out measurements from US6603046B1, “Bis-aromatic a,β-unsaturated ketones” (Lica Pharmaceuticals A/S, priority 1992, dated 2003).

Like-named read-outs stand apart in the source and are kept apart here.

For assay [1], the system named is P. falciparum. In words: P. falciparum growth in vitro (Table 14.1, strain not stated). Format: cell-based. The note with it: Plasmodium falciparum; for inhibition at 0.5 µg/mL: 0.5 μg/ml; for inhibition at 1 µg/mL: 1 μg/ml; for inhibition at 10 µg/mL: 10 μg/ml. The procedure: The P. falciparum experimental setup was as described in Example 15.
Testing of the effect of drugs and serum on the in vitro growth of the parasites. The experiments in which compounds were tested for their ability to inhibit parasite growth were performed by a modification of the method originally described by Jensen et al. (1982). Fifty μl of parasitized erythrocytes (parasitemia approximately 1%) in a concentration of 5×10^8/ml and 50 μl of RPMI medium containing different concentrations of the test compound was added to each well of a 96 well flat-bottomed microtiter plate (Nunc). The cultures were then incubated for 48 hours, 24 hours before termination of the culture adding 20 μl of 3-H-hypoxanthine (40 uCi/ml) (New England Nuclear, Boston, Mass., USA) was added to each well. The cultures were then harvested onto glass fiber filters using a Skatron cell harvester (Skatron, Lierbyen, Norway), and the incorporation of 3-H-hypoxanthine into the DNA of dividing parasites was determined by liquid scintillation spectrometry.

The test system of assay [2] is human lymphocytes. In words: Lymphocyte Proliferation Assay, 3H-thymidine incorporation (Example 13). The note with it: Homo sapiens, Lymphocyte, read-out: inhibition of lymphocytes (lower figure).
Assay [3] relates to L. major promastigotes. Kind of assay: L. major promastigotes from 4-days cultures, 3H-thymidine uptake (Examples 5, 14). The note with it: Leishmania major, Table 14.1, read-out: percentage inhibition of promastigotes (upper figure); for inhibition at 0.5 µg/mL: 0.5 μg/ml; for inhibition at 1 µg/mL: 1 μg/ml; for inhibition at 5 µg/mL: 5 μg/ml; for inhibition at 10 µg/mL: 10 μg/ml. Format: cell-based, Leishmania major. The procedure:
Parasite cultures. The same parasite culture as described in Example 4. Promastigotes were harvested on day 4 of the culture and used for the parasiticidal assay.
Effect on promastigotes. […] Following incubation, […] of ^3H-thymidine was added to each well and further incubated for 18 hrs. Promastigotes were then harvested on filter paper by means of a cell harvester (Skatron, Lierbyen, Norway), extensively washed with distilled water and counted in a scintillation counter (Minaxi Ti-Carb 4000, United Technologies, Packard, USA).
L. major promastigotes. The L. major promastigotes were prepared as described in Example 4 and harvested after 4 days.

Assay [4] concerns P. yoelii strain YM. In words: P. yoelii strain YM infection in mice, parasitemia and mortality (Example 16). Type of assay: in vivo, BALB/c mice. The settings on record: Table 16.11; for % parasitemia (mean ± SEM): 3 h after infection, D + 1 to D + 5.
Assay [5] has as its system chloroquine resistant P. falciparum DD2 strain. Kind of assay: In vitro growth of P. falciparum DD2, 3H-hypoxanthine uptake (Example 15). Format: cell-based, Plasmodium falciparum. The note with it: title: percentage inhibition of 3H-hypoxanthine uptake.
Setting [6] is: read-out: inhibition of malaria parasites (middle figure) (converted).
The mark [7] stands for this setting: 5 μg/ml, read-out: inhibition of malaria parasites (middle figure) (converted).

Turning to `COc1ccc(/C=C/C(=O)c2ccccc2O)c(OC)c1`, the inhibition at 0.5 µg/mL in assay [1] (setting [6]) is 0%; in assay [2], 3%; in assay [3], 19.2 ± 18.1%. For the same molecule, the inhibition at 1 µg/mL is 0.8% in assay [1] (setting [6]), 5.5% in assay [2] and 37.6 ± 18.3% in assay [3]. The figures for the inhibition at 5 µg/mL in assay [1] (setting [7]), in assay [2] and in assay [3] were 23.4%, 2.6% and 89.4 ± 13.8%, respectively. For the same molecule, the inhibition at 10 µg/mL in assay [1] (setting [6]) is 67.9%; in assay [2], 0%; in assay [3] it was 98.3 ± 1%.
Take `COc1cccc(OC)c1/C=C/C(=O)c1ccc(O)cc1`: in assay [1] (setting [6]), the inhibition at 0.5 µg/mL was 0%, the inhibition at 1 µg/mL was 16.6% and the inhibition at 10 µg/mL is 90.6%. Further, the inhibition at 5 µg/mL in assay [1] (setting [7]) is 71%. Further, in assay [2], the inhibition at 0.5 µg/mL was determined as 0%, the inhibition at 1 µg/mL is 3.3%, the inhibition at 5 µg/mL is 2.3% and the inhibition at 10 µg/mL is 4.4%. Also, in assay [3], the inhibition at 0.5 µg/mL worked out at 11.4 ± 9.2%, the inhibition at 1 µg/mL is 21.5 ± 10.6%, the inhibition at 5 µg/mL was 77.5 ± 4.3% and the inhibition at 10 µg/mL worked out at 93.1 ± 4.6%.
For the molecule `COc1ccc(/C=C/C(=O)c2ccc(O)cc2)c(OC)c1` [2,4-Dimethoxy-4′-hydroxychalcone, 2,4-dimethoxy-4′-hydroxychalcone], the “% parasitemia (mean ± SEM)” value in assay [4] (D + 6, i.p. 20 mg/kg twice daily) is reported as 4.8 ± 1.5%; in assay [4] (D + 6, i.p. 30 mg/kg twice daily), 46.4 ± 2.1%; in assay [4] (D + 8, i.p. 20 mg/kg twice daily), 12.4 ± 2.4%; in assay [4] (D + 8, i.p. 30 mg/kg twice daily) it was 70.8 ± 3.5%; in assay [4] (D + 10, i.p. 20 mg/kg twice daily) it was 58.6 ± 14%; in assay [4] (D + 12, i.p. 20 mg/kg twice daily) it was 25%. In addition, the “% parasitemia (mean ± SEM)” value stood at 6% in assay [4] (D + 14, i.p. 20 mg/kg twice daily) and 0% in assay [4] (D + 16, i.p. 20 mg/kg twice daily). The “mortality (no. of dead mice/total no. of tested mice)” value in assay [4] (D + 6, i.p. 40 mg/kg twice daily to D + 5) is “(5/5)”; in assay [4] (D + 8, i.p. 30 mg/kg twice daily to D + 5) it was “(1/5)”; in assay [4] (D + 10, i.p. 30 mg/kg twice daily to D + 5) it was “(5/5)”; in assay [4] (D + 12, i.p. 20 mg/kg twice daily to D + 5) it was 3/5; in assay [4] (D + 14, i.p. 20 mg/kg twice daily to D + 5), 3/5; in assay [4] (D + 16, i.p. 20 mg/kg twice daily to D + 5), 3/5. Also, the “Growth in % of control (mean ± SEM)” value in assay [5] (0.5 μg/ml) turned out to be 18.6 ± 7.2%; in assay [5] (1 μg/ml), 21.8 ± 7.3%; in assay [5] (5 μg/ml) it was 46.8 ± 6.6%; in assay [5] (10 μg/ml), 68.0 ± 4.7%.
Regarding `COc1ccc(/C=C/C(=O)c2ccccc2)c(OC)c1` [drawing 67], the inhibition at 5 µg/mL in assay [1] (read-out: inhibition of malaria parasites (middle figure)) was 35.6%; in assay [2], 2%; in assay [3] it was 77.8 ± 11.3%. The inhibition at 0.5 µg/mL was 0% in assay [1] (setting [6]), 9.1% in assay [2] and 14.5 ± 11.6% in assay [3]. Also, the inhibition at 1 µg/mL was 14.7% in assay [1] (setting [6]), 9.2% in assay [2] and 27 ± 13.7% in assay [3]. Further, the inhibition at 10 µg/mL in assay [1] (setting [6]) is 81.8%; in assay [2] it was 3.1%; in assay [3], 95.5 ± 3.8%.
As for `COc1ccc(/C=C/C(=O)c2ccc(O)cc2)c(OC)c1` [drawing 70], the values for the inhibition at 0.5 µg/mL in assay [1] (setting [6]), in assay [2] and in assay [3] were 2.2%, 1.5% and 20 ± 20.6%, respectively. The values for the inhibition at 1 µg/mL in assay [1] (setting [6]), in assay [2] and in assay [3] were 14.8%, 6.3% and 29 ± 22.2%, respectively. The inhibition at 5 µg/mL in assay [1] (setting [7]) is 31.6%; in assay [2], 2.4%; in assay [3], 66.9 ± 15.9%. The inhibition at 10 µg/mL in assay [1] (setting [6]) was 64.2%; in assay [2] it was 4%; in assay [3], 90.9 ± 7.4%.
As for `COc1ccc(OC)c(/C=C/C(=O)c2ccc(O)cc2)c1` [drawing 71], the inhibition at 0.5 µg/mL was 15.2% in assay [1] (setting [6]), 3.2% in assay [2] and 34.3% in assay [3]. The inhibition at 1 µg/mL is 23.1% in assay [1] (setting [6]), 6.9% in assay [2] and 61.9% in assay [3]. Besides, the inhibition at 5 µg/mL in assay [1] (setting [7]) is 71%; in assay [2] it was 78.8%; in assay [3], 96.2%. Moreover, the inhibition at 10 µg/mL in assay [1] (setting [6]) is 93.1%; in assay [2] it was 98.2%; in assay [3], 99.1%.
Take `COc1ccc(/C=C/C(=O)c2ccc(O)cc2)cc1OC` [drawing 73]: in assay [1] (setting [6]), the inhibition at 0.5 µg/mL was 21%, the inhibition at 1 µg/mL was 35.1% and the inhibition at 10 µg/mL was 73.4%. For the same molecule, the inhibition at 5 µg/mL in assay [1] (setting [7]) is 39.9%. Besides, in assay [2], the inhibition at 0.5 µg/mL turned out to be 0%, the inhibition at 1 µg/mL came out at 0.1%, the inhibition at 5 µg/mL is 5.2% and the inhibition at 10 µg/mL is 27.4%. Besides, in assay [3], the inhibition at 0.5 µg/mL stood at 17.8%, the inhibition at 1 µg/mL stood at 34.3%, the inhibition at 5 µg/mL worked out at 65.6% and the inhibition at 10 µg/mL was found to be 80%.
For `C=CCOc1ccc(C(=O)/C=C/c2cc(OC)ccc2OC)cc1` [drawing 78], in assay [1] (setting [6]), the inhibition at 0.5 µg/mL was 0%, the inhibition at 1 µg/mL is 0% and the inhibition at 10 µg/mL was 80%. Moreover, the inhibition at 5 µg/mL in assay [1] (setting [7]) is 35%. For the same molecule, in assay [2], the inhibition at 0.5 µg/mL was 5.7%, the inhibition at 1 µg/mL is 12.6%, the inhibition at 5 µg/mL is 4.3% and the inhibition at 10 µg/mL was 2.3%. Besides, in assay [3], the inhibition at 0.5 µg/mL is 10 ± 9.7%, the inhibition at 1 µg/mL amounted to 15.6 ± 15.1%, the inhibition at 5 µg/mL came to 63 ± 15.1% and the inhibition at 10 µg/mL was determined as 89.4 ± 10.2%.
Regarding `C=CCOc1ccc(C(=O)/C=C/c2cccc(OC)c2OC)cc1` [drawing 81], the inhibition at 0.5 µg/mL is 0% in assay [1] (setting [6]), 10.8% in assay [2] and 13.9 ± 12.9% in assay [3]. For the same molecule, the inhibition at 1 µg/mL in assay [1] (setting [6]) is 17.2%; in assay [2], 14.2%; in assay [3] it was 20.7 ± 17.1%. For the same molecule, the inhibition at 5 µg/mL in assay [1] (setting [7]) was 68.2%; in assay [2], 8.8%; in assay [3] it was 82.1 ± 13.6%. Besides, the inhibition at 10 µg/mL in assay [1] (setting [6]) is 73.1%; in assay [2], 13.8%; in assay [3], 98.1 ± 1%.
As for `C=CCOc1ccc(C(=O)/C=C/c2ccc(OC)cc2OC)cc1` [drawing 82], in assay [1] (setting [6]), the inhibition at 0.5 µg/mL is 31.1%, the inhibition at 1 µg/mL was 36.5% and the inhibition at 10 µg/mL is 97.3%. For the same molecule, the inhibition at 5 µg/mL in assay [1] (setting [7]) is 74.4%. Also, in assay [2], the inhibition at 0.5 µg/mL is 0%, the inhibition at 1 µg/mL was determined as 1.7%, the inhibition at 5 µg/mL came out at 5.9% and the inhibition at 10 µg/mL is 5.5%. In addition, in assay [3], the inhibition at 0.5 µg/mL turned out to be 35.4%, the inhibition at 1 µg/mL was 62.8%, the inhibition at 5 µg/mL came out at 71.4% and the inhibition at 10 µg/mL was found to be 85.4%.
